Earlier results, collected in patent publication US4722394A, “Determining residual oil saturation by radioactively analyzing injected CO2 and base-generating tracer-providing solution” (Shell Oil Company, priority 1986, dated 1988).

O=C=O [CO2, carbon dioxide]
distribution coefficient, Ki (ratio of concentration of tracer in the oil phase to that in the water phase): about 2
